Reference: publication PMC5798851, “The structure of FIV reverse transcriptase and its implications for non-nucleoside inhibitor resistance” (PLoS Pathogens, 2018)
Read-outs that look alike come from different tables or passages of the source.

Assays:
[1] = target: T1, mutated fRT (FIVm) (Feline immunodeficiency virus, UniProt P16088, A293E/G294T/K290I/R289S/R297I); assay: DNA-dependent DNA polymerization activity assay, mutant FIV RT; type: biochemical, feline immunodeficiency virus (FIV); details: 0.15 μM RT, 30 minutes at 37°C
T1 construct: The p66 subunit (residues 1–554) was cloned into pET22b; p51 subunit (residues 1–430) in pET28b (kan resistance, Novagen) with a thrombin-cleavable His-tag at the N-terminus; His-tag (thrombin-cleavable) (N, cleaved yes); made in house; host or cells: E. coli ArcticExpress
Method: (§1) DNA-dependent DNA polymerization activity of RT enzymes was assessed using a DNA primer/template prepared by annealing of 70-mer ssDNA template with a complementary 25-mer ssDNA primer labeled with 6-FAM at 5’-end (Integrated DNA Technologies).
(§2) Reaction mixtures contained 100 mM Tris-HCl pH 7.5, 75 mM KCl, 0.5 mM dNTP mixture, 60 mM MgCl2, 5 mM DTT and 0.15 μM RT, 0.5 μM DNA substrate. Reactions were incubated for 30 minutes at 37°C and stopped using urea sample loading buffer and heating at 95°C for 10 minutes. Reaction products were resolved using denaturing urea polyacrylamide gel electrophoresis (S5B Fig). Percentage RT activities represent percentile of band-intensities of polymerized product divided by those of template/primer substrate.

[2] = test system: mutant fRT (FIVm; R133S, K134I, A137E, G138T and R141I in FIV p51); assay: Microscale thermophoresis (MST) NNRTI binding affinity to p51-loop mutant FIV RT; set-up: species or system feline immunodeficiency virus (FIV); details: MST; for binding affinity to mutated fRT as compared to HIV-1 RT: FIVm versus HIV-1 RT
Description: (§3) The two subunits of FIV RT (Petaluma) were subcloned into separate plasmids to facilitate site-specific mutagenesis. […] FIV RT mutant (FIVm) was generated by introducing the specific mutations into the p51 subunit using QuikChange Kit (Agilent Technologies Genomics). HIV-1 RT construct, containing p66 and protease coding regions in pT5M plasmid, was a generous gift of Prof. Stephen H. Hughes (National Cancer Institute- Frederick, MD, USA).
(§4) RT proteins were labeled with Monolith NT protein labeling kit BLUE-NHS (NanoTemper Technologies) and eluted in microscale thermophoresis (MST) buffer (50 mm Tris-HCl, pH 7.0, 300 mM NaCl and 0.05% Tween-20).

[3] = target: T2, FIV RT (fRT) (Feline immunodeficiency virus, UniProt P16088); assay: Microscale thermophoresis (MST) NNRTI binding affinity to wild type FIV RT
T2 construct: The p66 subunit (residues 1–554) was cloned into pET22b; p51 subunit (residues 1–430) in pET28b (kan resistance, Novagen) with a thrombin-cleavable His-tag at the N-terminus; His-tag (thrombin-cleavable) (N, cleaved yes); made in house; host or cells: E. coli ArcticExpress
Method: as §4

[4] = target: T3, HIV-1 RT (Human immunodeficiency virus type 1 group M subtype B, UniProt P03366); assay: biochemical; type: binding
T3 construct: HIV-1 RT construct, containing p66 and protease coding regions in pT5M plasmid; His-tag (implied by cobalt-resin purification); made in house; host or cells: E. coli BL21(DE3)

[5] = target: T3, HIV-1 RT; type: biochemical
Method: as §1
as §2, with “Reactions” for “Reaction mixtures contained 100 mM Tris-HCl pH 7.5, 75 mM KCl, 0.5 mM dNTP mixture, 60 mM MgCl2, 5 mM DTT and 0.15 μM RT, 0.5 μM DNA substrate. Reactions”

[6] = target: T4, mutant fRT (FIVm; R133S, K134I, A137E, G138T and R141I in FIV p51) (Feline immunodeficiency virus, UniProt P16088, A293E/G294T/K290I/R289S/R297I); assay: Microscale thermophoresis (MST) NNRTI binding affinity to p51-loop mutant FIV RT
T4 construct: The p66 subunit (residues 1–554) was cloned into pET22b; p51 subunit (residues 1–430) in pET28b (kan resistance, Novagen) with a thrombin-cleavable His-tag at the N-terminus; His-tag (thrombin-cleavable) (N, cleaved yes); made in house; host or cells: E. coli ArcticExpress
Description: as §3, §4

| Structure (SMILES) | effect on DNA polymerization activity of the mutated fRT (in words) [1] | binding affinity to mutated fRT as compared to HIV-1 RT [2] | binding to fRT (in words) [3] | Kd [4] [nM] | inhibition of HIV-1 RT DNA polymerization activity (in words) [5] | Kd [6] [nM] | Kd ([4]; MST, mean ±SD, read-out: Kd, binding to HIV-1 RT) [nM] | inhibition of HIV-1 RT DNA polymerization activity (in words) ([5]; 0.15 μM RT, 30 minutes at 37°C) | binding affinity to mutated fRT as compared to fRT ([2]; FIVm versus wild type fRT) | Kd ([3]; mean ±SD) [nM] |
| --- | --- | --- | --- | --- | --- | --- | --- | --- | --- | --- |
| O=C1Nc2ccc(Cl)cc2[C@@](C#CC2CC2)(C(F)(F)F)O1 [EFZ, Efavirenz] | none of the three inhibitors EFZ, DLV or RPV reduced the activity | comparable affinities | fail to bind |  |  |  |  |  |  |  |
| CC(C)Nc1cccnc1N1CCN(C(=O)c2cc3cc(NS(C)(=O)=O)ccc3[nH]2)CC1 [DLV, Delavirdine] | none of the three inhibitors EFZ, DLV or RPV reduced the activity | twice the affinity | fail to bind | 617 ± 100 | potently inhibiting | 227 ± 71 |  |  |  |  |
| Cc1cc(/C=C/C#N)cc(C)c1Nc1ccnc(Nc2ccc(C#N)cc2)n1 [RPV, Rilpivirine] | none of the three inhibitors EFZ, DLV or RPV reduced the activity | comparable affinities | able to bind to fRT with comparable affinity to HIV-1 RT |  |  | 368 ± 60 | 539 ± 25 | potently inhibiting | twice the affinity | 796 ± 76 |
